This is an account of results in EP0357061B1, “Angiogenesis inhibitory agent” (priority 1988, dated 1990).

The subject of data set [1] is Chick Chorioallantoic Membranes. Put plainly: shell-less chorioallantoic membrane (CAM) assay. It is filed as in vivo. To be noted: after 48 - 72 hours. Here is the method: The shell-less chorioallantoic membrane (CAM) assay was carried out by the method of Folkman et al. (R.Crum. S.Szabo and J.Folkman; Science. 230. 1375 (1985)) as follows: three-day chick embryos were removed from their shells to petri dishes (Falcon 1005) under sterile hood and cultured for further 3 days.
AGM-1470 was dissolved to a 0.45% methylcellulose aqueous solution and aliquots of 10 »l were pipetted onto Teflon rods. After the solution had dried, the methylcellulose disks (about 2 mm in diameter) containing the compound were implanted on the CAM of 6-day embryos.
An avascular zone represents a region in which regression of pre-existing vessels has occured.
Percent of avascular zones was calculated by counting the disks forming avascular zones per the total disks tested. In each group there were 12 to 16 embryos.

In data set [2] the test system is Bovine capillary endothelial cells. Put plainly: Boyden chamber assay, capillary endothelial cell migration. The format is cell-based. The following applies: endothelial mitogen 200 »g/ml, 4 hours. Here is the method:
The Boyden chamber assay was carried out using a modification of the method of Falk et al., J. Immunol. Meth., 33:239-247 (1980) as follows: Bovine capillary endothelial cells were plated at 1.5 x 10⁴ cells per well in serum-free DMEM (Dulbecco's Modified Eagle's Medium) on one side of nucleopore filters pre-coated with fibronectin (7.3 »g fibronectin/ml PBS). […] Cells were exposed to endothelial mitogen (Biomedical Technologies, Massachusetts) at 200 »g/ml and different concentrations of the AGM-1470 in serum-free DMEM for 4 hours at 37°C. At the end of this incubation, the number of cells that migrated through 8» pores in the filters was determined by counting cells with an ocular grid at 100 X in quadruplicate.

The test system of data set [3] is Human umbilical vein endothelial cells (HUVE). Description: Inhibition of human endothelial cell growth (MTT). To be noted: Homo sapiens, Endothelial cell, 120 h, rbFGF 2 ng/ml, 5 day culture, read-out: (IC₅₀). The format is cell-based. On the procedure: Human umbilical vein endothelial cells (HUVE) were isolated by perfusion of an umbilical vein with a trypsin-containing medium. HUVE were cultured in GIT medium (Diago Eiyou Kagaku, Co., Japan) supplemented with 2.5% fetal bovine serum and 2.0 ng/ml of recombinant human basic fibroblast growth factor (rbFGF, Biotechnology Research Laboratories, Takeda, Osaka, Japan) at 37°C under 5% CO₂ and 7% O₂. HUVE were plated on 96-well microtiter plates (Nunc, 1-67008) at the cell density of 2 x 10³/100 »l of medium. The following day, 100 »l of medium containing rbFGF (2 ng/ml at the final concentration) and each compound (I) (shown by Example Numbers) at various concentrations were added to each well. […] After 5 day culture, medium was removed, 100 »l of 1 mg/ml of MTT (3-(4,5-dimethyl-2-thiazolyl)- 2,5-diphenyl-2H-tetrazolium bromide) solution was added to wells, and microtiters were kept at 37°C for 4 hours. Then, 100 »l of 10% sodium dodecyl sulfate (SDS) solution was added to wells, microtiters were kept at 37° for 5-6 hours. To determine the effects on cell number, the optical density ([…]) of each well was measured using an optical densitometer. […]

In a further data set the test system is B16 Mouse Melanoma. The format is in vivo. Here is the method: Using the B16 Mouse Melanoma model described in Folkman et al., Science, 221:719-725 (1983), the angiogenesis inhibitory activity of AGM-1470 was further evaluated. Treatment (Rx) usually started when tumors were approximately 70-100 mm³, approximately 9 to 10 days after inoculation. Tumors were matched for size before inclusion in treated and untreated groups. AGM-1470 was dissolved in isotonic solution by incubating with glass beads and vigorously shaking overnight at 4°C. This preparation was administered subcutaneously at 30 mg/kg every other day.
Tumor growth is presented as a T/C ratio, as defined below. In essence, a ratio equal to "+ 1" means no inhibition, a ratio equal to "0" means complete suppression of growth, and a negative ratio indicates tumor regression. [formula]

Data set [4] deals with mouse reticulum cell sarcoma (M 5076). Put plainly: Suppression of tumor formation in vivo (M 5076). To be noted: 30 mg/day subcutaneously, 10 injections over 12 days; tumor volume one day after the final injection. Also on record: species or system C57BL/6N mice. The text has this:
The tumor used in this assay was mouse reticulum cell sarcoma (M 5076), maintained by intraperitoneal transplantation into male C57BL/6N mice. The tumor cells in ascites were collected by centrifugation, and suspended in saline. The cell suspension (2 x 10⁶ cells/100 »l/mouse) was inoculated into right flanks of mice. Tumor-bearing mice were subcutaneously treated with the compound (I) (shown by Example Numbers) suspended in 5% arabic gum solution containing 1% of ethanol, for 12 days beginning one day after tumor inoculation (10 injections). The tumor growth was determined by measuring tumor size in two directions with calipers at intervals of a few days. The tumor volumes were calculated by the following formula. Tumor volume (mm³) = length x (width)² […]. [formula]

The subject of data set [5] is bFGF-induced angiogenesis. Put plainly: rat cornea micropocket method (angiogenesis inhibitory activity). The format is in vivo, Sprague-Dawley rats. To be noted: rats with angiogenesis inhibitory activity / rats tested; sample pellet 20 »g; judged after 7 days. On the procedure:
The product compound (I) obtained in the examples given below were evaluated for angiogenesis inhibitory activity by the rat cornea micropocket method.
Essentially the method of Gimbrone et al. [J. National Cancer Institute, 52, 413-419 (1974)] was followed. Thus, adult male Sprague-Dawley rats (11 to 16 weeks of age) were anesthetized with nembutal and locally anesthetized by instillation of xylocaine eyedrops onto the eyeball. The cornea was incised to a length of about 2 mm at about 2mm inside from the corneal circumference by means of an injection needle, and a sustained release pellet containing basic fibroblast growth factor (bFGF; bovine brain-derived, purified product; R & D) and a sustained release pellet containing the test sample were inserted side by side into the incision so that the bFGF pellet was located on the central side in the cornea. In the control group, the bFGF pellet and a sample-free pellet were inserted into the cornea. After 7 days and after 10 days, the cornea was observed under a stereoscopic microscope.
The sustained release pellets were prepared in the following manner. An ethylene-vinyl acetate copolymer (Takeda Chemical Industries) was dissolved in dichloromethane to a concentration of 8%. A 3-»l portion of the solution was air-dried on a glass dish, an aqueous solution of bFGF (250 ng) was then placed thereon and air-dried and, finally 3 »l of the above ethylene-vinyl acetate copolymer solution was placed further thereon and air-dried to give a laminate consisting of two copolymer layers and a bFGF layer sandwiched therebetween. This sandwich sheet was made round into a bFGF pellet. The test sample pellets were prepared by dissolving each sample in ethanol in a concentration of 20 »g/2 »l, mixing the solution (2 »l) with 6 »l of an ethylene-vinyl acetate copolymer solution, air-drying the mixed solution on a glass dish and making the thus-obtained sheet round.

SMILES strings stand for the structures. In brackets after ≈: the same amount, converted by molar mass. Where two headings read alike, the source gives them in different places. Marks after values point to notes of the source that are not given here.

With `CO[C@@H]1[C@H](OC(=O)NC(=O)CCl)CC[C@]2(CO2)[C@H]1[C@@]1(C)O[C@@H]1CC=C(C)C` [Example 8, O-Chloroacetylcarbamoylfumagillol], the “percent of avascular zones” value in data set [1] (dose 1 »g/10 »l methylcellulose) was determined as 33; in data set [1] (dose 10 »g/10 »l methylcellulose), 62; in data set [1] (dose 25 »g/10 »l methylcellulose), 100. Also, the IC50 was roughly 0.1 ng/mL (≈ 0.249 nM) in data set [2] (Bos taurus, Endothelial cell, read-out: Half maximal inhibition of endothelial mitogen-induced migration) and 0.01 ng/mL (≈ 0.0249 nM) in data set [3]. The “inhibition of cell migration” value in data set [2] (dose of 100 »g/ml) is recorded as “completely inhibited”. Besides, the “Significant inhibition of migration, doses as low as” value in data set [2] stood at 10 femptograms/ml. For the same compound, the “treated remained alive past day 55” value in the data set with B16 Mouse Melanoma (30 mg/kg subcutaneously every other day) is “Day 37 100% untreated dead 50% AGM-1470 treated dead (50% of treated remained alive past day 55)”. Also, the AGM-1470 treated dead entry in the data set with B16 Mouse Melanoma (Day 37 (100% untreated dead), 30 mg/kg subcutaneously every other day) was “Day 37 100% untreated dead 50% AGM-1470 treated dead (50% of treated remained alive past day 55)”. In addition, the toxicity result with B16 Mouse Melanoma (mouse, in vivo) is “little or no toxicity”. Further, the T/C amounted to 0.47 with B16 Mouse Melanoma (time of Rx 2 wk, 30 mg/kg subcutaneously every other day) and 0.20 in the data set with B16 Mouse Melanoma (time of Rx 3 wk, 30 mg/kg subcutaneously every other day). The “T/C (%)” value in data set [4] was 14%. Besides, the Inhibition rate in data set [5] was 6/6*.
